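All cell lines were grown in 96-well plates and treated with compound for 48 hours. Abbreviation: GI50, concentration required for 50% inhibition of growth.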 Calls of active or inactive are those of the source. Cut-off read from the data, not from the text of the source: active = GI50 up to about 1.1 µM and inactive = higher.

Consider 10 molecules from ChEMBL document CHEMBL1201862, “PubChem BioAssay data set” (2004).

Among the test systems are HOP-62; OVCAR-3; NCI-H226; RPMI-8226; MOLT-4; BT-549; HCC 2998; SK-OV-3; A549; M14; SNB-19; MCF7; NCI/ADR-RES; EKVX; K562; U-251; SK-MEL-5; SF-539; RXF 393; KM12.
What all share (experiment): NCI anticancer screen, dose series, 48 h

`NS(=O)(=O)c1ccc(NC(=O)c2ccc3nc4ccccc4c(Nc4ccc(S(N)(=O)=O)cc4)c3c2)cc1`: the GI50 with HOP-62, in the assay on OVCAR-3, with NCI-H226, with RPMI-8226, in the assay with MOLT-4 and in the assay with BT-549 was > 100 µM (inactive) in each case. Also, the GI50 with HCC 2998 is > 100 µM (inactive); with SK-OV-3, > 100 µM (inactive); in the assay on A549 it was > 100 µM (inactive); with M14, > 100 µM (inactive); with SNB-19, 42.1 µM (inactive); in the assay on MCF7 it was > 100 µM (inactive). For the same molecule, the GI50 with NCI/ADR-RES was > 100 µM (inactive); with EKVX it was > 100 µM (inactive); in the assay on K562, > 100 µM (inactive); in the assay on U-251, 62.8 µM (inactive); with SK-MEL-5, > 100 µM (inactive); in the assay with SF-539, > 100 µM (inactive). Moreover, the GI50 in the assay on RXF 393 is > 100 µM (inactive); in the assay with KM12 it was 12.1 µM (inactive).
As to `COc1ccccc1CNC(=O)[C@H](Cc1ccc(O)cn1)NC(C)=O`, the GI50 with HOP-62, in the assay with OVCAR-3, with NCI-H226, in the assay on RPMI-8226, in the assay on BT-549 and in the assay on HCC 2998 was > 100 µM (inactive) in each case. Moreover, the GI50 in the assay with SK-OV-3, in the assay with A549, in the assay with M14, with SNB-19, with MCF7 and in the assay on NCI/ADR-RES was > 100 µM (inactive) throughout. For the same molecule, the GI50 in the assay with EKVX, with K562, with U-251, in the assay with SK-MEL-5, in the assay on SF-539 and with RXF 393 was > 100 µM (inactive) each time. The GI50 with KM12 is > 100 µM (inactive).
As for `Cc1ccc(S(=O)(=O)Nc2nc3ccccc3c(=O)n2C2CCCCC2)cc1`, the GI50 is > 100 µM (inactive) with HOP-62; 76.7 µM (inactive) in the assay with OVCAR-3; > 100 µM (inactive) in the assay on NCI-H226; > 100 µM (inactive) with RPMI-8226; > 100 µM (inactive) with MOLT-4; 28.1 µM (inactive) in the assay with BT-549. The GI50 in the assay with HCC 2998, in the assay on SK-OV-3, in the assay on A549, in the assay on M14, in the assay with SNB-19 and in the assay with MCF7 was > 100 µM (inactive) throughout. Also, the GI50 in the assay with NCI/ADR-RES was > 100 µM (inactive); in the assay with EKVX it was > 100 µM (inactive); in the assay with K562 it was > 100 µM (inactive); in the assay with U-251, 90.2 µM (inactive); in the assay on SK-MEL-5, > 100 µM (inactive); in the assay on SF-539, > 100 µM (inactive). Moreover, the GI50 with RXF 393 is 68.2 µM (inactive); with KM12, > 100 µM (inactive).
For the molecule `C#CCN(C(=O)C(F)(F)F)C(/C=C\C(=O)OC)(C(=O)OCC)C(=O)OCC`, the GI50 in the assay on HOP-62, with OVCAR-3, in the assay with NCI-H226, with RPMI-8226, in the assay on MOLT-4 and with BT-549 was > 100 µM (inactive) each time. Also, the GI50 in the assay with HCC 2998, in the assay with SK-OV-3, in the assay with A549, in the assay with M14, in the assay with SNB-19 and in the assay with MCF7 was > 100 µM (inactive) throughout. Moreover, the GI50 with NCI/ADR-RES, in the assay with EKVX, with K562, with U-251, in the assay with SK-MEL-5 and with SF-539 was > 100 µM (inactive) in each case. Also, the GI50 in the assay with RXF 393 and with KM12 was > 100 µM (inactive) in each case.
On to `O=C(NCCCN(CCCCN(CCCNC(=O)C(F)(F)F)Cc1ccc2ccccc2c1)Cc1ccc2ccccc2c1)C(F)(F)F`, for which the GI50 in the assay on HOP-62 was > 100 µM (inactive); with OVCAR-3, > 100 µM (inactive); in the assay with NCI-H226 it was > 100 µM (inactive); in the assay on RPMI-8226 it was 2.81 µM (inactive); in the assay on MOLT-4, 5.28 µM (inactive); in the assay with BT-549, 6.22 µM (inactive). In addition, the GI50 in the assay with HCC 2998 is 1.53 µM (inactive); in the assay on SK-OV-3, > 100 µM (inactive); with A549, > 100 µM (inactive); in the assay on M14, 1.99 µM (inactive); in the assay on MCF7, 1.95 µM (inactive); with NCI/ADR-RES, 73.5 µM (inactive). Also, the GI50 in the assay on EKVX is > 100 µM (inactive); with K562 it was 2.48 µM (inactive); in the assay with U-251, 3.91 µM (inactive); with SK-MEL-5, 1.75 µM (inactive); with SF-539 it was 4.62 µM (inactive); in the assay with RXF 393, 3.77 µM (inactive). Besides, the GI50 in the assay with KM12 was 5.83 µM (inactive).
Regarding `COc1ccc(NC2=NCCO2)c2c1CCCC2`, the GI50 in the assay on OVCAR-3 is 29.1 µM (inactive); in the assay on NCI-H226, 21.9 µM (inactive); with RPMI-8226 it was 24.6 µM (inactive); in the assay on MOLT-4, 10.5 µM (inactive); in the assay on BT-549 it was 30.2 µM (inactive); in the assay on HCC 2998, 31.9 µM (inactive). Moreover, the GI50 in the assay on SK-OV-3 was 18.4 µM (inactive); with A549, 40.7 µM (inactive); in the assay with M14 it was 29.2 µM (inactive); in the assay on SNB-19 it was 39.4 µM (inactive); in the assay on MCF7, 27.4 µM (inactive); with NCI/ADR-RES, 27.6 µM (inactive). The GI50 was 47.8 µM (inactive) with EKVX; 28.3 µM (inactive) in the assay on K562; 25.8 µM (inactive) in the assay with U-251; 17.5 µM (inactive) in the assay on SK-MEL-5; 33.2 µM (inactive) with SF-539; 21.4 µM (inactive) with RXF 393. For the same molecule, in the assay on KM12, the GI50 was 42.6 µM (inactive).
As to `COc1ccc(-c2[nH]c(-c3ccc(OC)cc3)c(-c3ccccn3)c2-c2ccccn2)cc1`, the GI50 was 48.9 µM (inactive) in the assay on OVCAR-3; 85.7 µM (inactive) in the assay on NCI-H226; 20.2 µM (inactive) in the assay with RPMI-8226; 34.7 µM (inactive) in the assay with MOLT-4; 36.2 µM (inactive) in the assay with BT-549; 13.6 µM (inactive) in the assay on HCC 2998. The GI50 was > 100 µM (inactive) with SK-OV-3; 40.8 µM (inactive) in the assay with A549; 48.1 µM (inactive) in the assay with M14; 68.7 µM (inactive) in the assay on SNB-19; 42.7 µM (inactive) in the assay on MCF7; 39.5 µM (inactive) with NCI/ADR-RES. The GI50 is 72.3 µM (inactive) in the assay with EKVX; 25.5 µM (inactive) with K562; 43.8 µM (inactive) with U-251; 18.3 µM (inactive) in the assay on SK-MEL-5; 63.1 µM (inactive) with SF-539; 31.3 µM (inactive) in the assay on RXF 393. For the same molecule, the GI50 in the assay on KM12 was 38.2 µM (inactive).
For the molecule `COc1ccc(OC)c([N+](=O)[O-])c1-c1nc2sc(C)c(C)n2c1/C=N/N=C(N)N`, the GI50 was > 100 µM (inactive) in the assay with HOP-62; > 100 µM (inactive) in the assay with OVCAR-3; > 100 µM (inactive) in the assay with NCI-H226; 32.4 µM (inactive) in the assay with RPMI-8226; 13.9 µM (inactive) in the assay on MOLT-4; 25.9 µM (inactive) in the assay on BT-549. The GI50 in the assay on HCC 2998 was 46.3 µM (inactive); in the assay on A549, > 100 µM (inactive); in the assay on M14 it was 76.7 µM (inactive); in the assay on SNB-19 it was 36.3 µM (inactive); in the assay with MCF7, 24 µM (inactive); with NCI/ADR-RES, > 100 µM (inactive). Also, the GI50 in the assay on EKVX is > 100 µM (inactive); in the assay on K562 it was 33.3 µM (inactive); in the assay with U-251, 49.7 µM (inactive); with SK-MEL-5, 34.5 µM (inactive); in the assay on SF-539, > 100 µM (inactive); in the assay with RXF 393, > 100 µM (inactive). Further, the GI50 in the assay on KM12 was 20.9 µM (inactive).
For `CC(C)=CCN=C(N)N`, the GI50 was > 100 µM (inactive) with NCI-H226; 24.9 µM (inactive) in the assay with RPMI-8226; 51.2 µM (inactive) in the assay on MOLT-4; > 100 µM (inactive) in the assay with BT-549; > 100 µM (inactive) in the assay on HCC 2998; > 100 µM (inactive) in the assay on SK-OV-3. The GI50 in the assay on A549, in the assay on SNB-19, with MCF7, with NCI/ADR-RES, in the assay with EKVX and with U-251 was > 100 µM (inactive) in each case. Besides, the GI50 in the assay with SK-MEL-5, in the assay on SF-539, in the assay with RXF 393 and in the assay on KM12 was > 100 µM (inactive) each time.
Turning to `COc1cc(OC)c(-c2oc3ccccc3c(=O)c2O)c(OC)c1`, the GI50 in the assay on OVCAR-3 was 2.63 µM (inactive); in the assay with NCI-H226, > 100 µM (inactive); with RPMI-8226, 4.28 µM (inactive); with MOLT-4, 3.52 µM (inactive); in the assay on BT-549 it was 1.67 µM (inactive); in the assay with HCC 2998, 0.586 µM (active). Moreover, the GI50 in the assay with SK-OV-3 was 5.94 µM (inactive); in the assay with A549 it was 4.9 µM (inactive); with M14, 2.55 µM (inactive); with SNB-19, > 57.1 µM (inactive); with MCF7, 6.25 µM (inactive); in the assay with NCI/ADR-RES, 1.77 µM (inactive). Further, the GI50 in the assay on EKVX was 39.4 µM (inactive); in the assay with K562, 2.7 µM (inactive); in the assay on U-251 it was 3.84 µM (inactive); in the assay with SK-MEL-5 it was 3.68 µM (inactive); in the assay on SF-539, 8.73 µM (inactive); in the assay with RXF 393, 2.43 µM (inactive). In the assay with KM12, the GI50 was 1.99 µM (inactive).
